Assay results published in patent US20230141603A1, “BENZODIAZEPINE DERIVATIVES AS GABA A GAMMA1 PAM” (Hoffmann-La Roche Inc., priority 2021, published 2023).

Tests used:
h-GABAA α2β2γ1 = biological target: T1, h-GABAA α2β2γ1 (Homo sapiens, UniProt P47869+Q8N1C3); assay: Two-electrode voltage clamp electrophysiology in Xenopus oocytes, modulation of GABA EC20 current; assay type: cell-based; set-up: host or cells: Xenopus laevis oocytes, RNA micro-injection; settings: Table 2; for Efficacy (GABA)%: % modulation of GABA EC20 = 100*(Fold increase−1), compound at approx. 30-fold Ki; for Fold increase h-GABA-A α2β2γ1 oocyte @ 30-fold Ki: compound at approx. 30-fold its Ki α2β2γ1, GABA EC20, Xenopus oocytes
T1 sequence (P47869 29-451): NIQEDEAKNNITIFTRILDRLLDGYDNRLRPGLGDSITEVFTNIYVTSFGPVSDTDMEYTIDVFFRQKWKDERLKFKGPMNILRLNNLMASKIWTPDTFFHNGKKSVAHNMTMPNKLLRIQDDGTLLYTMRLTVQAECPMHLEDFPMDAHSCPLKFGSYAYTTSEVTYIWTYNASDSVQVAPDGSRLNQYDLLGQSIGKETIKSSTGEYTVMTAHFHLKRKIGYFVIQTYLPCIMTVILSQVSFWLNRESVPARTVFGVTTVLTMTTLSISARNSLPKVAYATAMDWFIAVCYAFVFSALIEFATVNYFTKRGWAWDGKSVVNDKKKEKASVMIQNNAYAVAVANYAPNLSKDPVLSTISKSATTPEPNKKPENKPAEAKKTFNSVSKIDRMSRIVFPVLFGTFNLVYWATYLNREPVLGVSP
T1 sequence (P47870 25-512 partner limits assumed): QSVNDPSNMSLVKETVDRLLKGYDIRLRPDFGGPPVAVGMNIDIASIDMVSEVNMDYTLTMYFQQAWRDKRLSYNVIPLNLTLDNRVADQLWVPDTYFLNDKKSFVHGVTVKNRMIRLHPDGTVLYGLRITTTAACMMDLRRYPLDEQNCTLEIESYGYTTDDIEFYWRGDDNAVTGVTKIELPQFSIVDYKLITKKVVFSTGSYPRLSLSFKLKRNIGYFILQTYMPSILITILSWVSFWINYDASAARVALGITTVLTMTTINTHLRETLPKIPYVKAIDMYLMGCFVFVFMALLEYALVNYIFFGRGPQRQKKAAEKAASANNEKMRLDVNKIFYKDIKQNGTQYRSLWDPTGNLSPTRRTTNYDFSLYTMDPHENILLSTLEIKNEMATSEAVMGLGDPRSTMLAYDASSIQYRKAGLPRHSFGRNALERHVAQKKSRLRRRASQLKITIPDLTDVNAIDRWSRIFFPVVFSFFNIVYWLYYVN
T1 sequence (Q8N1C3 36-465): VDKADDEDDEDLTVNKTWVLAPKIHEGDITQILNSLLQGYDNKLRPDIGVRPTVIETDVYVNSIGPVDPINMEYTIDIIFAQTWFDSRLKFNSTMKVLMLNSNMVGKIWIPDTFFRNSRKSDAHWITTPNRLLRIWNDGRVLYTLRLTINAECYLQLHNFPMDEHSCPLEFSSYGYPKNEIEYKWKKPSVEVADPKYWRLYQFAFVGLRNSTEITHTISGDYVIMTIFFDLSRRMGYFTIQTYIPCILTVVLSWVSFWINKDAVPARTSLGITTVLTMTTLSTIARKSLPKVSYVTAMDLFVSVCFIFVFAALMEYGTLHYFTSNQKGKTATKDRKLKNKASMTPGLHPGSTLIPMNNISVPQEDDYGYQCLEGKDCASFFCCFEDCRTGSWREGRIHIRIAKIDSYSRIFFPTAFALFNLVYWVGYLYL
How it was run: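 Oocytes injected with receptor subunit mRNA were recorded 3–5 days later by two-electrode voltage clamp at −80 mV, room temperature, pH 7.4. Compound was applied during a second GABA EC20 pulse, with at least 3 oocytes per concentration. Efficacy is the ratio-trace extremum, expressed as % modulation of GABA EC20.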

h-GABAA α1β3γ2 = biological target: T2, h-GABAA α1β3γ2 (Homo sapiens, UniProt P14867+P18507); assay: Radioligand binding assay, [3H]Flumazenil competition, HEK293F membranes; settings: for γ2/γ1 Selectivity Ratio / LogSel: Table 1; for γ2/γ1 Selectivity Ratio: Ki α1β3γ2 (nM)/Ki α2β2γ1 (nM); for LogSel: Log[Ki α1β3γ2 (nM)/Ki α2β2γ1 (nM)]
T2 construct: expressed in transfected cells; host or cells: HEK293F cells, membranes
How it was run: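 [3H]Flumazenil competition binding on membranes from HEK293F cells transiently expressing human α1β3γ2 receptors. Incubation to equilibrium for 1 h at 4 °C, then filtration and scintillation counting. Ki is the mean of two determinations.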

Structure (SMILES) | Efficacy (GABA)% (h-GABAA α2β2γ1) [%] | Fold increase h-GABA-A α2β2γ1 oocyte @ 30-fold Ki (h-GABAA α2β2γ1) | Ki (h-GABAA α1β3γ2) [nM] | γ2/γ1 Selectivity Ratio (h-GABAA α1β3γ2) | LogSel (h-GABAA α1β3γ2)
Fc1cccnc1C1=NCc2nnc(-c3cccnn3)n2-c2ccc(Br)c(Cl)c21 [Example 45, 8-bromo-7-chloro-6-(3-fluoro-2-pyridyl)-1-pyridazin-3-yl-4H-[1,2,4]triazolo[4,3-a][1,4]benzodiazepine] | 828 | 9.28 | 1220 | 77.7 | 1.89
Fc1cccnc1C1=NCc2nnc(-c3ccncn3)n2-c2ccc(Br)c(Cl)c21 [Example 46, 8-bromo-7-chloro-6-(3-fluoro-2-pyridyl)-1-pyrimidin-4-yl-4H-[1,2,4]triazolo[4,3-a][1,4]benzodiazepine] | 55 | 1.55 | 1160 | 45.8 | 1.66
Clc1cccnc1C1=NCc2nnc(-c3cccnn3)n2-c2ccc(Br)c(Cl)c21 [Example 47, 8-bromo-7-chloro-6-(3-chloro-2-pyridyl)-1-pyridazin-3-yl-4H-[1,2,4]triazolo[4,3-a][1,4]benzodiazepine] | 314 | 4.14 | 222 | 14.0 | 1.15
Cc1ccc2c(c1Cl)C(c1c(F)cccc1F)=NCc1nnc(-c3cccnn3)n1-2 [Example 48, 7-chloro-6-(2,6-difluorophenyl)-8-methyl-1-pyridazin-3-yl-4H-[1,2,4]triazolo[4,3-a][1,4]benzodiazepine] | 101 | 2.01 | 952 | 114.1 | 2.06
Cc1ccc2c(c1Cl)C(c1c(F)cccc1F)=NCc1nnc(-c3ccncn3)n1-2 [Example 49, 7-chloro-6-(2,6-difluorophenyl)-8-methyl-1-pyrimidin-4-yl-4H-[1,2,4]triazolo[4,3-a][1,4]benzodiazepine] | 57 | 1.57 | 1470 | 104.3 | 2.02
Cc1nnc2n1-c1ccc(Br)c(Cl)c1C(c1c(F)cccc1Cl)=NC2 [Example 50, 8-bromo-7-chloro-6-(2-chloro-6-fluoro-phenyl)-1-methyl-4H-[1,2,4]triazolo[4,3-a][1,4]benzodiazepine] | 54 | 1.54 | 73.8 | 15.8 | 1.20
Fc1cccnc1C1=NCc2nnc(-c3cccnn3)n2-c2ccc(Cl)c(Cl)c21 [Example 54, 7,8-dichloro-6-(3-fluoro-2-pyridyl)-1-pyridazin-3-yl-4H-[1,2,4]triazolo[4,3-a][1,4]benzodiazepine] | 602 | 7.02 | 2070 | 68.7 | 1.84
Fc1cccnc1C1=NCc2nnc(-c3ccncn3)n2-c2ccc(Cl)c(Cl)c21 [Example 55, 7,8-dichloro-6-(3-fluoro-2-pyridyl)-1-pyrimidin-4-yl-4H-[1,2,4]triazolo[4,3-a][1,4]benzodiazepine] | 59 | 1.59 | 1720 | 92.9 | 1.97
COc1ccc2c(c1Cl)C(c1c(F)cccc1F)=NCc1nnc(-c3cccnn3)n1-2 [Example 57, 7-chloro-6-(2,6-difluorophenyl)-8-methoxy-1-pyridazin-3-yl-4H-[1,2,4]triazolo[4,3-a][1,4]benzodiazepine] | 149 | 2.49 | 2110 | 36.5 | 1.56
Cn1cc(-c2nnc3n2-c2ccc(Cl)c(Cl)c2C(c2ncccc2F)=NC3)cn1 [Example 58, 7,8-dichloro-6-(3-fluoro-2-pyridyl)-1-(1-methylpyrazol-4-yl)-4H-[1,2,4]triazolo[4,3-a][1,4]benzodiazepine] | 67 | 1.67 | 1300 | 39.4 | 1.60
O=c1[nH]nc2n1-c1ccc(Cl)c(Cl)c1C(c1ncccc1F)=NC2 [Example 59, 7,8-dichloro-6-(3-fluoro-2-pyridyl)-2,4-dihydro-[1,2,4]triazolo[4,3-a][1,4]benzodiazepin-1-one] | 115 | 2.15 | 577 | 21.9 | 1.34
Fc1cccnc1C1=NCc2nncn2-c2ccc(Cl)c(Cl)c21 [Example 60, 7,8-dichloro-6-(3-fluoro-2-pyridyl)-4H-[1,2,4]triazolo[4,3-a][1,4]benzodiazepine] | 132 | 2.32 | 1110 | 28.6 | 1.46
COc1ccc2c(c1Cl)C(c1c(F)cccc1F)=NCc1nnc(-c3ccncn3)n1-2 [Example 61, 7-chloro-6-(2,6-difluorophenyl)-8-methoxy-1-pyrimidin-4-yl-4H-[1,2,4]triazolo[4,3-a][1,4]benzodiazepine] | 61 | 1.61 | 2140 | 27.6 | 1.44
COc1ccc2c(c1Cl)C(c1c(F)cccc1F)=NCc1nnc(-c3cccnc3)n1-2 [Example 62, 7-chloro-6-(2,6-difluorophenyl)-8-methoxy-1-(3-pyridyl)-4H-[1,2,4]triazolo[4,3-a][1,4]benzodiazepine] | 63 | 1.63 | 2150 | 38.9 | 1.59
Fc1cccnc1C1=NCc2nnc(C3CC3)n2-c2ccc(Cl)c(Cl)c21 [Example 65, 7,8-dichloro-1-cyclopropyl-6-(3-fluoro-2-pyridyl)-4H-[1,2,4]triazolo[4,3-a][1,4]benzodiazepine] | 114 | 2.14 | 1560 | 24.0 | 1.38
Fc1cccnc1C1=NCc2nnc(-c3ccncn3)n2-c2ccc(C(F)(F)F)c(Cl)c21 [Example 69, 7-chloro-6-(3-fluoro-2-pyridyl)-1-pyrimidin-4-yl-8-(trifluoromethyl)-4H-[1,2,4]triazolo[4,3-a][1,4]benzodiazepine] | 136 | 2.36 | 10600 | 166.3 | 2.22
Cn1cc(-c2nnc3n2-c2ccc(C(F)(F)F)c(Cl)c2C(c2ncccc2F)=NC3)cn1 [Example 70, 7-chloro-6-(3-fluoro-2-pyridyl)-1-(1-methylpyrazol-4-yl)-8-(trifluoromethyl)-4H-[1,2,4]triazolo[4,3-a][1,4]benzodiazepine] | 78 | 1.78 | 5980 | 144.5 | 2.16
